# Values of other authors as cited in article PMC7533793 (Cancer, 2009).
# Read-outs that look alike come from different tables or passages of the source.
# Test system: in-transit extremity melanoma
# Settings: for CR rate, isolated limb infusion: Sydney Melanoma Unit study
# [1] = previously published experience of the authors, without ADH-1
smiles,measurement,setting,value
"N[C@@H](Cc1ccc(N(CCCl)CCCl)cc1)C(=O)O [melphalan, L-phenylalanine mustard]","CR rate, isolated limb infusion","n = 60, M. D. Anderson stage IIIab (AJCC stage IIIC)",33%
same,"CR rate, isolated limb infusion","n = 74, M. D. Anderson stage IIIa (AJCC stage IIIB)",43%
same,"CR rate, isolated limb infusion with LPAM",[1],30%
same,"PD rate, isolated limb infusion with LPAM",[1],48%
same,"PR rate, isolated limb infusion with LPAM",[1],7%
